Test results published in patent US8592451B2, “Reversible nondepolarizing neuromuscular blockade agents and methods for their use” (Cornell University, priority 2009, dated 2013).

Test system: twitch of the extensor digitorum
Experiment: Neuromuscular blocking potency and duration in anesthetized rhesus monkeys
Type: in vivo, rhesus monkeys (Macaca mulatta)
Settings: in vivo, comparable level of neuromuscular blockade
Procedure: Experiments were approved by the Institutional Animal Care and Use Committee of Weill Medical College of Cornell University (New York, N.Y.) and of Albany Medical College (Albany, N.Y.), where the studies were conducted. A colony of 10 adult male monkeys (Macaca mulatta) weighing 8-18 kg was studied at ˜6 week intervals. Animals were housed and cared for in accordance with the Guide for Care and Use of Laboratory Animals (National Research Council, Washington, D.C.). They were fed a standard Old World monkey diet, enriched with fruits and vegetables, and other dietary novelties and were followed throughout the study to verify normal health by physical examination, body weight, and clinical laboratory studies (Complete Blood Count, Blood Urea Nitrogen and creatinine, and liver function tests).
On the day of each study, monkeys received ketamine (7-10 mg/kg i.m.) followed by tracheal intubation under topical anesthesia with 4% lidocaine. Ventilation was controlled at 10 mL/kg and 20 breaths/min with isoflurane (1.0-2.0%) and N2O/O2 (2:1 mixture). Ringers lactate was administered at ˜10 ml kg^−1 h^−1. Arterial pressure was monitored from a femoral, superficial tibial, or radial (22 gauge) cannula. Heart rate was measured by tachograph from the arterial pulse wave. Core temperature was kept at 36.5-38.0° C. by warming blankets. Electrocardiogram and pulse oximetry were monitored continuously.
Needle electrodes (25 gauge) transmitting square-wave pulses of 0.2 msec duration at supramaximal voltage which were generated by a Grass S-88 stimulator (Grass Instruments, Quincy, Mass.) were placed at the peroneal nerve at the knee to elicit twitch responses of the extensor digitorum of the foot at 0.15 Hz. A small slip (10-20%) of the tendon was dissected free under sterile technique and tied to a Grass FT 10 force transducer (Grass Instruments, Quincy, Mass.) at a baseline tension of 50 gm. Train-of four stimulation (TOF, 2 Hz for 2 sec) was interposed at appropriate points, especially 1-2 min prior to NMBA dosing and following recovery of twitch to 95% of baseline, where TOF was subsequently evaluated every 1-2 min.
Recordings of circulatory and neuromuscular data were made on a Grass 7B polygraph (Grass Instruments). A baseline period of 15-20 min was allowed for stabilization of recordings prior to dosing.^2
Dose-response curves for twitch blockade by gantacurium, CW 002, CW 011, cisatracurium, CW002-Cys, NB 938-69, NB 1064-81, NB 802-17 (CW 001), NB 832-65, and NB 1163-79, structures of which are all shown above, were generated as follows. […] Successive doses were separated by at least three estimated half lives beyond complete recovery of the previous dose to TOF of 110-120%, which is normal for these monkeys. Only the first one or two doses yielding 5 to 99% blockade were included from any single experiment for computation of dose-response data.
Comparative studies of spontaneous recovery versus antagonism/reversal were done at least 3 estimated half-lives following dose-response studies.
ED 50 and ED 95 were computed from the regression of log dose vs. the logit of percentage blockade of twitch.
CW002-Cys, the L-cysteine adduct of CW 002, was available in limited quantity and was administered in cumulative fashion to three animals to compare approximate potency and duration of effect versus its parent compound CW 002.

`COc1ccc(C[C@@H]2c3cc(OC)c(OC)cc3CC[N@@+]2(C)CCCOC(=O)/C=C\C(=O)OCCC[N@+]2(C)CCc3cc(OC)c(OC)cc3[C@H]2Cc2cc(OC)c(OC)c(OC)c2)cc1OC` [CW 011] was tested, and the “potency relative to CW 002” value was “approximately twice” and the “potency relative to gantacurium” value was “four times”.
